Molecules are shown by their SMILES.

For 39 compounds, IC50 results are on record in US7741354B2, “Inhibitors of glutaminyl cyclase” (Probiodrug AG, priority 2006, dated 2010).

In one test the target is hQC (Homo sapiens, UniProt Q16769). Put plainly: Fluorometric (fluorescent) assay of hQC inhibition, IC50. It is filed as biochemical. Conditions: hQC inhibition; read-out: IC50. In a few lines: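 QC activity followed at 30° C via pyroglutamyl aminopeptidase-coupled release of fluorophore, using either H-Gln-βNA (0.2 mM; ex/em 320/410 nm; 0.2 M Tris/HCl pH 8.0, 20 mM EDTA) or H-Gln-AMC (ex/em 380/460 nm; 0.05 M Tris/HCl pH 8.0, 5 mM EDTA).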
hQC, sequence (Q16769 29-361): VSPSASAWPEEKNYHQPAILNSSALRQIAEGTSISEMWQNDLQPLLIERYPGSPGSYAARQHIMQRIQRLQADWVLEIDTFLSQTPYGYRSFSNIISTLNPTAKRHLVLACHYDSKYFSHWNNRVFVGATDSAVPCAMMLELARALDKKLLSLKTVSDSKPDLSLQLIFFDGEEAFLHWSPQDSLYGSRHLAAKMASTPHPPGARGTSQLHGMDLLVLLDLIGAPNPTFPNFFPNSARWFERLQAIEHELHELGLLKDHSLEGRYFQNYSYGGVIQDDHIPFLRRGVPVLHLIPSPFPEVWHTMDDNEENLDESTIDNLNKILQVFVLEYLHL
For the compound `O=C1CCCN1CCCn1nnnc1C(Nc1ccc2[nH]cnc2c1)c1ccc(Br)cc1` (stereo not shown) [compound 194, 1-(3-{5-[(1H-Benzoimidazol-5-ylamino)-(4-bromo-phenyl)-methyl]-tetrazol-1-yl}-propyl)-pyrrolidn-2-one], the half-inhibitory concentration (IC50) (commonly the concentration needed to halve the response being measured) was 8.5 µM.
Same read-out and setting: under `O=[N+]([O-])c1cc(C(Nc2ccc3[nH]cnc3c2)c2nnnn2CC2CCCO2)ccc1Cl` (stereo not shown) [compound 146] stands 3.1 µM; under `Clc1ccc(Cn2nnnc2C(Nc2ccc3[nH]cnc3c2)c2ccc3nsnc3c2)cc1` (stereo not shown) [compound 166], 0.4 µM; under `Brc1cc(Br)cc(C(Nc2ccc3[nH]cnc3c2)c2nnnn2C(c2ccccc2)c2ccccc2)c1` (stereo not shown) [compound 186, [(1-Benzhydryl-1H-tetrazol-5-yl)-(3,5-dibromo-phenyl)-methyl]-(1H-benzoimidazol-5-yl)-amine], 5.8 µM.
Same read-out and setting: under `CC(C)(C)OC(=O)Cn1nnnc1C(Nc1ccc2[nH]cnc2c1)c1ccc2c(c1)OCO2` (stereo not shown) [compound 119, {5-[Benzo[1,3]dioxol-5-yl-(1H-benzoimidazol-5-ylamino)-methyl]-tetrazol-1-yl}-acetic acid tert-butyl ester] stands 2.2 µM.
Still for that read-out and setting: under `CCOC(=O)C1CCCCC1n1nnnc1C(Nc1ccc2[nH]cnc2c1)c1ccc2c(c1)OCO2` (stereo not shown) [compound 162] stands 5.8 µM; under `C1=COC(C(Nc2ccc3nc[nH]c3c2)c2nnnn2CCc2cccs2)CC1` (stereo not shown) [compound 182, (1H-Benzoimidazol-5-yl)-{(3,4-dihydro-2H-pyran-2-yl)-[1-(2-thiophen-2-yl-ethyl)-1H-tetrazol-5-yl]-methyl}-amine], 5.8 µM.
For `OCc1ccc(C(Nc2ccc3[nH]cnc3c2)c2nnnn2Cc2ccc(Cl)cc2)o1` (stereo not shown) [compound 121, (5-{(1H-Benzoimidazol-5-ylamino)-[1-(4-chloro-benzyl)-1H-tetrazol-5-yl]-methyl}-furan-2-yl)-methanol], the IC50 is 4.9 µM.
Still for that read-out and setting: under `CC(CC(Nc1ccc2[nH]cnc2c1)c1nnnn1-c1ccc(Oc2ccccc2)cc1)c1ccccc1` (stereo not shown) [compound 204, (1H-Benzoimidazol-5-yl)-{1-[1-(4-phenoxy-phenyl)-1H-tetrazol-5-yl]-3-phenyl-butyl}-amine] stands 6.7 µM; under `Brc1cc(Br)cc(C(Nc2ccc3[nH]cnc3c2)c2nnnn2CCc2cccs2)c1` (stereo not shown) [compound 177, (1H-Benzoimidazol-5-yl)-{(3,5-dibromo-phenyl)-[1-(2-thiophen-2-yl-ethyl)-1H-tetrazol-5-yl]-methyl}-amine], 2.2 µM; under `c1ccc(Cn2nnnc2C(Nc2ccc3[nH]cnc3c2)c2ccc3nsnc3c2)cc1` (stereo not shown) [compound 147], 1.3 µM.
For `O=C1CCCN1CCCn1nnnc1C(Nc1ccc2[nH]cnc2c1)c1cc(Br)cc(Br)c1` (stereo not shown) [compound 176, 1-(3-{5-[(1H-Benzoimidazol-5-ylamino)-(3,5-dibromo-phenyl)-methyl]-tetrazol-1-yl}-propyl)-pyrrolidin-2-one], the half-maximal inhibitory concentration (IC50) came out at 5.8 µM.
Regarding `CCOC(=O)C1CCCCC1n1nnnc1C(Nc1ccc2[nH]cnc2c1)c1c[nH]c2cc(C)ccc12` (stereo not shown) [compound 196], the concentration for half-maximal inhibition (IC50) stood at 8.5 µM.
Still for that read-out and setting: with `Oc1ccc(Cl)cc1C(Nc1ccc2[nH]cnc2c1)c1nnnn1C1CCCCC1` (stereo not shown) [compound 193, 2-[(1H-Benzoimidazol-5-ylamino)-(1-cyclohexyl-1H-tetrazol-5-yl)-methyl]-4-chloro-phenol] the figure was 5.8 µM; with `CCOC(=O)C1CCCCC1n1nnnc1C(Nc1ccc2[nH]cnc2c1)c1ccc(OC)c(F)c1` (stereo not shown) [compound 132, 2-{5-[(1H-Benzoimidazol-5-ylamino)-(3-fluoro-4-methoxy-phenyl)-methyl]-tetrazol-1-yl}-cyclohexanecar-boxylic acid ethyl ester], 8.5 µM; with `CC(C)(C)c1ccc(-n2nnnc2C(Nc2ccc3[nH]cnc3c2)c2ccc3nsnc3c2)cc1` (stereo not shown) [compound 117], 4 µM.
Turning to `Brc1ccc(C(Nc2ccc3[nH]cnc3c2)c2nnnn2Cc2cccnc2)cc1` (stereo not shown) [compound 201, (1H-Benzoimidazol-5-yl)-[(4-bromo-phenyl)-(1-pyridin-3-ylmethyl-1H-tetrazol-5-yl)-methyl]-amine], the 50% inhibitory concentration (IC50) was found to be 4 µM.
Regarding `C/C=C/C=C/C(Nc1ccc2[nH]cnc2c1)c1nnnn1CCc1cccs1` (stereo not shown) [compound 161, (1H-Benzoimidazol-5-yl)-{(2E,4E)-1-[1-(2-thiophen-2-yl-ethyl)-1H-tetrazol-5-yl]-hexa-2,4-dienyl}-amine], the IC50 was 5.8 µM.
The same measure, in the same setting: under `COc1ccc(C(Nc2ccc3[nH]cnc3c2)c2nnnn2Cc2cccnc2)cc1Br` (stereo not shown) [compound 142, (1H-Benzoimidazol-5-yl)-[(3-bromo-4-methoxy-phenyl)-(1-pyridin-3-ylmethyl-1H-tetrazol-5-yl)-methyl]-amine] stands 0.4 µM.
The same measure, in the same setting: under `O=C(Cn1nnnc1C(Nc1ccc2[nH]cnc2c1)c1cccs1)N1CCc2ccccc2C1` (stereo not shown) [compound 120, 2-{5-[(1H-Benzoimidazol-5-ylamino)-thiophen-2-yl-methyl]-tetrazol-1-yl}-1-(3,4-dihydro-1H-isoquinolin-2-yl)-ethanone] stands 8.5 µM; under `Cc1cc(C(Nc2ccc3[nH]cnc3c2)c2nnnn2CC2CCCO2)cc(C)c1O` (stereo not shown) [compound 131, 4-{(1H-Benzoimidazol-5-ylamino)-[1-(tetrahydro-furan-2-ylmethyl)-1H-tetrazol-5-yl]-methyl}-2,6-dimethyl-phenol], 6.7 µM.

Staying with this test, now noted: purified compound from preparative synthesis; fluorescent assay; read-out: IC50 hQC.
In the case of `Cc1ccc(O)c(C(NCCCn2ccnc2)c2nnnn2C2CC2)c1` (stereo not shown) [Compound 68, 2-[(1-Cyclopropyl-1H-tetrazol-5-yl)-(3-imidazol-1-yl-propylamino)-methyl]-4-methyl-phenol], the 50% inhibitory concentration (IC50) stood at 0.668 µM.

The test is the same for the next values; noted with them: read-out: IC50.
With `COc1cc(C)c(C(Nc2ccc3[nH]cnc3c2)c2nnnn2C(C)(C)C)cc1C` (stereo not shown) [compound 99], the IC50 was determined as 8.5 µM.
On the same count and under the same terms, under `Cc1ccc(O)c(C(NCCCn2ccnc2)c2nnnn2C2CC2)c1` (stereo not shown) [Compound 68, 2-[(1-Cyclopropyl-1H-tetrazol-5-yl)-(3-imidazol-1-yl-propylamino)-methyl]-4-methyl-phenol] stands 0.4 µM; under `C=CCn1nnnc1C(NCCCn1ccnc1)c1cc(C)c(C)cc1C` (stereo not shown) [compound 48, [(1-Allyl-1H-tetrazol-5-yl)-(2,4,5-trimethyl-phenyl)-methyl]-(3-imidazol-1-yl-propyl)-amine], 9.4 µM; under `C=CCn1nnnc1C(NCCCn1ccnc1)c1ccc2ccccc2n1` (stereo not shown) [compound 47, [(1-Allyl-1H-tetrazol-5-yl)-quinolin-2-yl-methyl]-(3-imidazol-1-yl-propyl)-amine], 3.1 µM.
On the same count and under the same terms, under `COC(=O)c1cccc(C(Nc2ccc3[nH]cnc3c2)c2nnnn2Cc2ccc(Cl)cc2)c1` (stereo not shown) [compound 85, 3-{(1H-Benzoimidazol-5-ylamino)-[1-(4-chloro-benzyl)-1H-tetrazol-5-yl]-methyl}-benzoic acid methyl ester] stands 1.3 µM.
On the same count and under the same terms, with `c1ccc2ncc(C(Nc3ccc4[nH]cnc4c3)c3nnnn3CC3CCCO3)cc2c1` (stereo not shown) [compound 102, (1H-Benzoimidazol-5-yl)-{quinolin-3-yl-[1-(tetrahydro-furan-2-ylmethyl)-1H-tetrazol-5-yl]-methyl}-amine] the figure was 2.2 µM; with `CC(C)(C)n1nnnc1C(NCCCn1ccnc1)c1ccc2cccc(O)c2n1` (stereo not shown) [compound 60, 2-[(1-tert-Butyl-1H-tetrazol-5-yl)-(3-imidazol-1-yl-propylamino)-methyl]-quinolin-8-ol], 0.4 µM; with `COc1cccc(C(Nc2ccc3[nH]cnc3c2)c2nnnn2CC2CCCO2)c1` (stereo not shown) [compound 89, (1H-Benzoimidazol-5-yl)-{(3-methoxy-phenyl)-[1-(tetrahydro-furan-2-ylmethyl)-1H-tetrazol-5-yl]-methyl}-amine], 7.6 µM.
With `CC(CC(Nc1ccc2[nH]cnc2c1)c1nnnn1CC1CCCO1)c1ccccc1` (stereo not shown) [compound 97, (1H-Benzoimidazol-5-yl)-{3-phenyl-1-[1-(tetrahydro-furan-2-ylmethyl)-1H-tetrazol-5-yl]-butyl}-amine], the half-maximal inhibitory concentration (IC50) is 4 µM.
Still for that read-out and setting: under `COCCn1nnnc1C(NCCCn1ccnc1)c1ccc2[nH]ccc2c1` (stereo not shown) [compound 41, (3-Imidazol-1-yl-propyl)-{(1H-indol-5-yl)-[1-(2-methoxy-ethyl)-1H-tetrazol-5-yl]-methyl}-amine] stands 4.9 µM; under `COCCn1nnnc1C(NCCCn1ccnc1)c1ccc2ccccc2n1` (stereo not shown) [compound 42, (3-Imidazol-1-yl-propyl)-{[1-(2-methoxy-ethyl)-1H-tetrazol-5-yl]-quinolin-2-yl-methyl}-amine], 5.8 µM.
Take `Cc1ccc(O)c(C(NCCCn2ccnc2)c2nnnn2C[C@@H]2CCCO2)c1` (stereo partly drawn) [compound 11, 2-((3-Imidazol-1-yl-propylamino)-{1-[(S)-1-(tetrahydro-furan-2-yl)methyl]-1H-tetrazol-5-yl}-methyl)-4-methyl-phenol]: the IC50 amounted to 3.1 µM.
Still for that read-out and setting: under `CCOC(=O)C1CC1C(Nc1ccc2[nH]cnc2c1)c1nnnn1CCc1cccs1` (stereo not shown) [compound 104] stands 4 µM; under `COC(=O)Cn1nnnc1C1(NCCCn2ccnc2)CCC1` [compound 49, {5-[1-(3-Imidazol-1-yl-propylamino)-cyclobutyl]-tetrazol-1-yl}-acetic methyl ester], 0.4 µM; under `Cc1cc(C)c(C(NCCCn2ccnc2)c2nnnn2C[C@@H]2CCCO2)cc1C` (stereo partly drawn) [compound 17, (3-Imidazol-1-yl-propyl)-[{1-[(S)-1-(tetrahydro-furan-2-yl)methyl]-1H-tetrazol-5-yl}-(2,4,5-trimethyl-phenyl)-methyl]-amine], 4 µM.
The same measure, in the same setting: under `CN(C)c1ccc(C(Nc2ccc3[nH]cnc3c2)c2nnnn2CC2CCCO2)cc1` (stereo not shown) [compound 108, (1H-Benzoimidazol-5-yl)-{(4-dimethylamino-phenyl)-[1-(tetrahydro-furan-2-ylmethyl)-1H-tetrazol-5-yl]-methyl}-amine] stands 5.8 µM; under `CCCCn1nnnc1C(NCCCn1ccnc1)c1ccc(Cl)c(Cl)c1` (stereo not shown) [compound 18, [(1-Butyl-1H-tetrazol-5-yl)-(3,4-dichloro-phenyl)-methyl]-(3-imidazol-1-yl-propyl)-amine], 7.6 µM.
With `CC(Cc1ccc2c(c1)OCO2)C(Nc1ccc2[nH]cnc2c1)c1nnnn1Cc1ccccc1Cl` (stereo not shown) [compound 113], the IC50 was found to be 3.1 µM.
